From patent EP0608858A1, “5-Membered heterocycles as aggregation inhibitors” (Dr. Karl Thomae GmbH, priority 1993, dated 1994)
Structures can show the parent of a compound that is named as a salt.

Legend:
Humanthrombozyten [1] = experiment: Competitive binding of ³H-BIBU 52 / test substance to human platelets; details: human platelets in plasma, ³H-BIBU 52 5 nM, 20 min at room temperature; read-out: Kompetitive Bindung ³H-BIBU 52 Textsubstanz an Humanthrombozyten IC₅₀
Description: 1. Kompetitive Bindung ³H-BIBU 52/Testsubstanz an Humanthrombozyten:
Eine Suspension von Humanthrombozyten in Plasma wird mit ³H-BIBU 52 [= (3S,5S)-5-[(4'-Amidino-4-biphenylyl)oxymethyl]-3-[(carboxyl)methyl]-2-pyrrolidinon[3-³H-4-biphenylyl]], das den literaturbekannten Liganden ¹²⁵I-Fibrinogen ersetzt, (siehe deutsche Patentanmeldung P 42 14 245.8 der gleichen Anmeldezin vom 30. 04. 1992, internes Zeichen: Case 5/1093-FL) und verschiedenen Konzentrationen der zu testenden Substanz inkubiert. Der freie und gebundene Ligand wird durch Zentrifugation getrennt und durch Szintillationszählung quantitativ bestimmt. Aus den Meßwerten wird die Hemmung der ³H-BIBU 52-Bindung durch die Testsubstanz bestimmt.
Hierzu wird aus einer Antikubitalvene Spenderblut entnommen und mit Trinatriumzitrat antikoaguliert (Endkonzentration 13 mM) . Das Blut wird 10 Minuten bei 170 x g zentrifugiert und das überstehende plättchenreiche Plasma (PRP) abgenommen. Das Restblut wird zur Gewinnung von Plasma nocheinmal scharf abzentrifugiert. Das PRP wird mit autologem Plasma 1:10 verdünnt. 750 µl werden mit 50 µl physiologischer Kochsalzlösung, 100 µl Testsubstanzlösung, 50 µl ¹⁴C-Sucrose (3.700 Bq) und 50 µl ³H-BIBU 52 (Endkonzentration: 5 nM.) bei Raumtemperatur 20 Minuten inkubiert. Zur Messung der unspezifischen Bindung wird anstelle der Testsubstanz 5 µl BIBU 52 (Endkonzentration: 30 µM) eingesetzt. Die Proben werden 20 Sekunden bei 10000 x g zentrifugiert und der Überstand abgezogen. 100 µl hiervon werden zur Bestimmung des freien Liganden gemessen. Das Pellet wird in 500 µl 0,2N NaOH gelöst, 450 µl werden mit 2 ml Szintillator und 25 µl 5N HCl versetzt und gemessen. Das im Pellet noch verbliebene Restplasma wird aus dem ¹⁴C-Gehalt bestimmt, der gebundene Ligand aus der ³H-Messung. Nach Abzug der unspezifischen Bindung wird die Pelletaktivität gegen die Konzentration der Testssubstanzaufgetragen und die Konzentration für eine 50%ige Hemmung der Bindung ermittelt.

Thrombozytenaggregation = experiment: Collagen-induced platelet aggregation (Born and Cross) in platelet-rich plasma; format: cell-based, gesunder Versuchspersonen; details: human platelet-rich plasma, 10 min preincubation with substance at 37°C, read-out: Hemmung der Plättchenaggregation EC₅₀
Description: 2. Antithrombotische Wirkung
Die Thrombozytenaggregation wird nach der Methode von Born und Cross (J. Physiol. 170, 397 (1964)) in plättchenreichem Plasma gesunder Versuchspersonen gemessen. Zur Gerinnungshemmung wird das Blut mit Natriumcitrat 3,14 % im Volumenverhältnis 1:10 versetzt.
Collagen-induzierte Aggregation
Der Verlauf der Abnahme der optischen Dichte der Plättchensuspension wird nach Zugabe der aggregationsauslösenden Substanz photometrisch gemessen und registriert. Aus dem Neigungswinkel der Dichtekurve wird auf die Aggregationsgeschwindigkeit geschlossen. Der Punkt der Kurve, bei dem die größte Lichtdurchlässigkeit vorliegt, dient zur Berechnung der "optical density".
Die Collagen-Konzentration wird möglichst gering gewählt, aber doch so, daß sich eine irreversibel verlaufende Reaktionskurve ergibt. Verwendet wird das handelsübliche Collagen der Firma Hormonchemie, München. Vor der Collagen-Zugabe wird das Plasma jeweils 10 Minuten mit der Substanz bei 37°C inkubiert.
Aus den Konzentrations-Wirkungskurven wird die EC₅₀ berechnet, die die Konzentration beschreibt, bei der die Änderung der "optical density" halbmaximal gehemmt ist.

Mäusen = experiment: Tolerability after intravenous administration to mice; format: in vivo; details: 30 mg/kg, 3 mice each
Humanthrombozyten [2] = experiment: Ex vivo inhibition of collagen-induced aggregation of human platelets by rat plasma obtained after oral dosing; format: in vivo; details: rat plasma obtained after oral 10 mg/kg, after 3 hours
Protocol: Außerdem erzielt man beispielsweise mit dem nach peroraler Gabe vom 10 mg/kg der Verbindung des Beispiels 2(19) gewonnenen Rattenplasma ex vivo nach 3 Stunden eine 80%ige Hemmung der durch Kollagen induzierten Aggregration von Humanthrombozyten.

| Structure (SMILES) | IC50 (Humanthrombozyten [1]) | EC50 (Thrombozytenaggregation) | Tiere gestorben (Mäusen) | Hemmung der durch Kollagen induzierten Aggregration von Humanthrombozyten (Humanthrombozyten [2]) |
| --- | --- | --- | --- | --- |
| Cl.O=C(O)CCCCc1nnc(-c2ccc(C3CCNCC3)cc2)s1 [Beispiel 5, 2-(4-Carboxy-butyl)-5-[4-(4-piperidyl)-phenyl]-1,3,4-thiadiazol-hydrochlorid] | 510 nM | 320 nM | keine Tiere gestorben |  |
| O=C(O)CCNC(=O)c1nnc(-c2ccc(C3CCNCC3)cc2)s1 [Beispiel 3, 2-[(2-Carboxyethyl)-aminocarbonyl]-5-[4-(4-piperidyl)-phenyl]-1,3,4-thiadiazol-hydrochlorid] | 400 nM | 880 nM |  |  |
| Cl.O=C(O)[C@H]1CC[C@H](c2nnc(-c3ccc(C4CCNCC4)cc3)s2)CC1 [5(3), 2-(trans-4-Carboxy-cyclohexyl)-5-[4-(4-piperidyl)-phenyl]-1,3,4-thiadiazol-hydrochlorid] | 11 nM | 100 nM | keine Tiere gestorben |  |
| CCOC(=O)[C@H]1CC[C@H](c2nnc(-c3ccc(C4CCNCC4)cc3)s2)CC1.Cl [2(19), 2-[trans-4-(Ethoxycarbonyl)-cyclohexyl]-5-[4-(4-piperidyl)-phenyl]-1,3,4-thiadiazol-hydrochlorid] |  |  |  | 80% |

Continued, in another order:

| IC50 (Humanthrombozyten [1]) | EC50 (Thrombozytenaggregation) | Structure (SMILES) | Tiere gestorben (Mäusen) | Hemmung der durch Kollagen induzierten Aggregration von Humanthrombozyten (Humanthrombozyten [2]) |
| --- | --- | --- | --- | --- |
| 24000 nM | 3000 nM | COC(=O)CCNC(=O)c1nnc(-c2ccc(C3CCNCC3)cc2)s1 [Beispiel 2, 2-[[2-(Methoxycarbonyl)-ethyl]-aminocarbonyl]-5-[4-(4-piperidyl)-phenyl]-1,3,4-thiadiazol-hydrochlorid] |  |  |
| 1.6 nM | 40 nM | CCCCS(=O)(=O)NC(Cc1cn(-c2ccc(-c3ccc(C(=N)N)cc3)nn2)cn1)C(=O)O (centres unmarked) [3(3), 1-[6-(4-Amidino-phenyl)-3-pyridazinyl]-4-[2-(n-butan-sulfonylamino)-2-carboxy-ethyl]-imidazol-hydrochlorid] |  |  |
| 6800 nM | 4400 nM | O=C(O)CCCCc1nnc(-c2ccc(C3CCNCC3)cc2)o1 [3(1), 2-(4-Carboxybutyl)-5-[4-(4-piperidyl)-phenyl]-1,3,4-oxadiazol] |  |  |
| 550 nM | 380 nM | COC(=O)[C@H]1CC[C@H](c2nnc(-c3ccc(C4CCNCC4)cc3)s2)CC1 [2(3), 2-[trans-4-(Methoxycarbonyl)-cyclohexyl)-5-[4-(4-piperidyl)-phenyl]-1,3,4-thiadiazol-hydrochlorid] |  |  |
